Experimental data from US11572590B2, “Methods for evaluating tumor cell spheroids using 3D microfluidic cell culture device” (Dana-Farber Cancer Institute, Inc., priority 2017, dated 2023).
Like-named read-outs stand apart in the source and are kept apart here.

What was measured:
Assay in all cases: SelectScreen Kinase Profiling, single point inhibition and IC50 for off-target kinases
Type in all cases: biochemical
off-target kinases [1] = molecular target: T1, off-target kinases (Homo sapiens, UniProt Q9H2K8); details: TAOK3 (JIK), LanthaScreen Binding
T1 sequence (Q9H2K8 1-898): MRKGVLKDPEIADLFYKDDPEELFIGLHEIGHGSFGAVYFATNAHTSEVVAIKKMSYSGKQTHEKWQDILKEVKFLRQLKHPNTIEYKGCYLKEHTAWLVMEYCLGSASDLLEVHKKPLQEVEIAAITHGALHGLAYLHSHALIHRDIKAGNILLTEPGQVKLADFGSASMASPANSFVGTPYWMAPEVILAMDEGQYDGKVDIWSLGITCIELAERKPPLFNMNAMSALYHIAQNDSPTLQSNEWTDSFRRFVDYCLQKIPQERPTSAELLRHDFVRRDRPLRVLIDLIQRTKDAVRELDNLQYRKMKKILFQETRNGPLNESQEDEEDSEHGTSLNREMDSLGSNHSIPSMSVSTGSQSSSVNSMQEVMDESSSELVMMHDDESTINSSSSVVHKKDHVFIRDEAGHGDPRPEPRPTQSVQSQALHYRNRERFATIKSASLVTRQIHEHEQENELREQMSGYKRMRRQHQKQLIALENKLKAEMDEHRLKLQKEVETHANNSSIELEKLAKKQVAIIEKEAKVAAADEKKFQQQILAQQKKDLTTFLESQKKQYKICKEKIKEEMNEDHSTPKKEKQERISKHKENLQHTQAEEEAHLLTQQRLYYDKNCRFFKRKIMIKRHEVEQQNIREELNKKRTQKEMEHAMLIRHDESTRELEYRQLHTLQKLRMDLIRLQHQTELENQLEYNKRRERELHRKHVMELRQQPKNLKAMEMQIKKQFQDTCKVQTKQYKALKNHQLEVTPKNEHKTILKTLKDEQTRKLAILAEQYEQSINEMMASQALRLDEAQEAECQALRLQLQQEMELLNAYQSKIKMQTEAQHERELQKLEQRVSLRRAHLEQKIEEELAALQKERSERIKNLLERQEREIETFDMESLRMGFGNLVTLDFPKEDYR

off-target kinases [2] = molecular target: off-target kinases (Homo sapiens, UniProt Q9BYP7)
Sequence of off-target kinases (Homo sapiens, UniProt Q9BYP7) (Q9BYP7 whole entry): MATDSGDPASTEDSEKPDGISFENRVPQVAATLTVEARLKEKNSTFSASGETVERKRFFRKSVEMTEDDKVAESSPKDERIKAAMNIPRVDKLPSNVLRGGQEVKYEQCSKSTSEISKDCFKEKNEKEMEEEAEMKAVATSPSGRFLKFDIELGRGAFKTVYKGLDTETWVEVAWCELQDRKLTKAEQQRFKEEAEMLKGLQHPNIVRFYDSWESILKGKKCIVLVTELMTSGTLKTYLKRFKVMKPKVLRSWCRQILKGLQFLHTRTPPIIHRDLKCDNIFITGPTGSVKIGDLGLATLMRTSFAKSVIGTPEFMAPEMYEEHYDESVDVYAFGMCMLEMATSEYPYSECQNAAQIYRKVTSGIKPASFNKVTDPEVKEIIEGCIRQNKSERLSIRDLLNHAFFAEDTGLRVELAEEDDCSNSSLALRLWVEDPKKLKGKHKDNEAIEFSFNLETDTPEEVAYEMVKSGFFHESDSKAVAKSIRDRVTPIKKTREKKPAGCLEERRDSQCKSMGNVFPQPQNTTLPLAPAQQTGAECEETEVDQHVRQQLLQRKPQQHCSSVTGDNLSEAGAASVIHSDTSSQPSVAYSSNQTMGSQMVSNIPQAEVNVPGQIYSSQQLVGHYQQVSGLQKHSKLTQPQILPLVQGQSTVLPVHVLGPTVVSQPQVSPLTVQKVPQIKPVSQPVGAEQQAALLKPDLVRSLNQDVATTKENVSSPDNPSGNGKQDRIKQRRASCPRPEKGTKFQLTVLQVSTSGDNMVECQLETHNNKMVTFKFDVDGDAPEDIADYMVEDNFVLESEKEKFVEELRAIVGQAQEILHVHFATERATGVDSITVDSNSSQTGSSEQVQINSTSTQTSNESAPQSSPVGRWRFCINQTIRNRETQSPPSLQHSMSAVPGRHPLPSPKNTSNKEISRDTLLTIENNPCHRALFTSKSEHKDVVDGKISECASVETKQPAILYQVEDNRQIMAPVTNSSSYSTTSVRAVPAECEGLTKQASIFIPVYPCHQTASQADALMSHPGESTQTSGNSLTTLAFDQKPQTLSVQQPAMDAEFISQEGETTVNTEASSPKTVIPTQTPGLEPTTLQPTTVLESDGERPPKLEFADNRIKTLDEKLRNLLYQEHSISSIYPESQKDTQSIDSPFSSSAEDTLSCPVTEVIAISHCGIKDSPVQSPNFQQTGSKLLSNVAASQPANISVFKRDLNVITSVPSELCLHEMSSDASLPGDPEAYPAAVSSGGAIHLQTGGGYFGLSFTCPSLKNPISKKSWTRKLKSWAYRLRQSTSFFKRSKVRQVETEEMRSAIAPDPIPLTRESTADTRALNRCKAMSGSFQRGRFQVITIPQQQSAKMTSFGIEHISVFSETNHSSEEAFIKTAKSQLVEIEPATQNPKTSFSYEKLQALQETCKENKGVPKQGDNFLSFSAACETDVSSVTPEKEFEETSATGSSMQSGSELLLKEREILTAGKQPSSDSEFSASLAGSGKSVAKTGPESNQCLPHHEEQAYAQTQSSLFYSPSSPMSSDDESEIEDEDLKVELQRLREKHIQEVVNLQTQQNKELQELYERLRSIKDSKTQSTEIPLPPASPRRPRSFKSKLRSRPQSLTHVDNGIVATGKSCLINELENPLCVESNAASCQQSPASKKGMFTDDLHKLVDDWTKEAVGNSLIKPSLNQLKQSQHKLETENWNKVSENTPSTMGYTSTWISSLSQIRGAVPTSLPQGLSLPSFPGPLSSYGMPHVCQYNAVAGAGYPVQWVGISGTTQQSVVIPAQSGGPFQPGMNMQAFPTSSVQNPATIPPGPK

off-target kinases [3] = molecular target: off-target kinases (Homo sapiens, UniProt Q9H2G2); details: SLK, LanthaScreen Binding
off-target kinases [4] = molecular target: off-target kinases (Homo sapiens, UniProt Q15746); details: MYLK (MLCK), LanthaScreen Binding
Sequence of off-target kinases (Homo sapiens, UniProt Q15746) (Q15746 whole entry): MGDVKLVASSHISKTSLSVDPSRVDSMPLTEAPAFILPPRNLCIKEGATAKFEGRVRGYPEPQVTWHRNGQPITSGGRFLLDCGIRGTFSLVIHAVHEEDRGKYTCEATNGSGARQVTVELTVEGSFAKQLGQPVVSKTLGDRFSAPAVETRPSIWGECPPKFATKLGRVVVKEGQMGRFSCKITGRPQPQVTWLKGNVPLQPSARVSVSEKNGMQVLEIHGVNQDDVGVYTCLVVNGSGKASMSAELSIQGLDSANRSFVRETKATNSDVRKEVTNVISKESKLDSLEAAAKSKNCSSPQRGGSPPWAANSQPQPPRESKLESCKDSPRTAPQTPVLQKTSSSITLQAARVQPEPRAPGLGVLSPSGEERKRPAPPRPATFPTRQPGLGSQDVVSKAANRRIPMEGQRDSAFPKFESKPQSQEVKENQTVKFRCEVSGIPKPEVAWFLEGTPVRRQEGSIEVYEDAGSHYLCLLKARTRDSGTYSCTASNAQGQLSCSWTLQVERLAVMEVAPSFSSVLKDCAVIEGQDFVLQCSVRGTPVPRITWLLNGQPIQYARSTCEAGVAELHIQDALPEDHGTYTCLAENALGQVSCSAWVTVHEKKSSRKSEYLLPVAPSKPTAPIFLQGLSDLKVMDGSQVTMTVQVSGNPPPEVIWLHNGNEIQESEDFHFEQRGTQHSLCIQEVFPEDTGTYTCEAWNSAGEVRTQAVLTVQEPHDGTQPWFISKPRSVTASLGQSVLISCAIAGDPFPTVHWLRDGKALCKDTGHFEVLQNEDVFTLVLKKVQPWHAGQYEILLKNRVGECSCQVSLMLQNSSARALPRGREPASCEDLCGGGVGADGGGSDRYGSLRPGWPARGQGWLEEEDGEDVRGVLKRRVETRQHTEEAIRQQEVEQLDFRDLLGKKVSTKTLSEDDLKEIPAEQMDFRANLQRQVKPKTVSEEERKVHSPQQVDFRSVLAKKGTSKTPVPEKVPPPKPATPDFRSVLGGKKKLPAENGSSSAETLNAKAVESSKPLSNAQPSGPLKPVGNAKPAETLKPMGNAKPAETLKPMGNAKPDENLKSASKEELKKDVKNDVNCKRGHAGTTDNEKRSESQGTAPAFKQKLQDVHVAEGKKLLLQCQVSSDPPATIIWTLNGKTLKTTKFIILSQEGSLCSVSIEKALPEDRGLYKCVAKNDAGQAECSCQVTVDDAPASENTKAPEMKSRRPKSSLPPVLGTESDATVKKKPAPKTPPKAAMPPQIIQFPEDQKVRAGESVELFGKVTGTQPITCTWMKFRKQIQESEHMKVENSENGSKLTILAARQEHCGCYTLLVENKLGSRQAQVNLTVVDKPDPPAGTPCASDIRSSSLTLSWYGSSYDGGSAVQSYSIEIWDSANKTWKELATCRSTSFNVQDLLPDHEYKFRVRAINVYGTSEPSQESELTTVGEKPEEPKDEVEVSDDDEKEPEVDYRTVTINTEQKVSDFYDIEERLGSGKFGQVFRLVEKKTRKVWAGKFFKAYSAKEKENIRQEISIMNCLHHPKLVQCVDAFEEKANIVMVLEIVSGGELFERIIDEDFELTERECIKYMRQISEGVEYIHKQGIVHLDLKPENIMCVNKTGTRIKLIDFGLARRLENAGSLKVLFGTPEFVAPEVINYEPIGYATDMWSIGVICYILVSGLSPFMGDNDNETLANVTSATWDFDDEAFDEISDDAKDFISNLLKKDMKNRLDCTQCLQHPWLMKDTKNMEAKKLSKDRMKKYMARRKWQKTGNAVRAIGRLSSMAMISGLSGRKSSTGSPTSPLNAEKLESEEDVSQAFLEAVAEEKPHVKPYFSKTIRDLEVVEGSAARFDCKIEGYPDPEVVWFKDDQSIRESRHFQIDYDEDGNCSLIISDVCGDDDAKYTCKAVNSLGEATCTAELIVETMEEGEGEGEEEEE

off-target kinases [5] = molecular target: off-target kinases (Homo sapiens, UniProt Q02763); details: TEK (Tie2), ZLYTE, ATP Km app
Sequence of off-target kinases (Homo sapiens, UniProt Q02763) (Q02763 23-1124): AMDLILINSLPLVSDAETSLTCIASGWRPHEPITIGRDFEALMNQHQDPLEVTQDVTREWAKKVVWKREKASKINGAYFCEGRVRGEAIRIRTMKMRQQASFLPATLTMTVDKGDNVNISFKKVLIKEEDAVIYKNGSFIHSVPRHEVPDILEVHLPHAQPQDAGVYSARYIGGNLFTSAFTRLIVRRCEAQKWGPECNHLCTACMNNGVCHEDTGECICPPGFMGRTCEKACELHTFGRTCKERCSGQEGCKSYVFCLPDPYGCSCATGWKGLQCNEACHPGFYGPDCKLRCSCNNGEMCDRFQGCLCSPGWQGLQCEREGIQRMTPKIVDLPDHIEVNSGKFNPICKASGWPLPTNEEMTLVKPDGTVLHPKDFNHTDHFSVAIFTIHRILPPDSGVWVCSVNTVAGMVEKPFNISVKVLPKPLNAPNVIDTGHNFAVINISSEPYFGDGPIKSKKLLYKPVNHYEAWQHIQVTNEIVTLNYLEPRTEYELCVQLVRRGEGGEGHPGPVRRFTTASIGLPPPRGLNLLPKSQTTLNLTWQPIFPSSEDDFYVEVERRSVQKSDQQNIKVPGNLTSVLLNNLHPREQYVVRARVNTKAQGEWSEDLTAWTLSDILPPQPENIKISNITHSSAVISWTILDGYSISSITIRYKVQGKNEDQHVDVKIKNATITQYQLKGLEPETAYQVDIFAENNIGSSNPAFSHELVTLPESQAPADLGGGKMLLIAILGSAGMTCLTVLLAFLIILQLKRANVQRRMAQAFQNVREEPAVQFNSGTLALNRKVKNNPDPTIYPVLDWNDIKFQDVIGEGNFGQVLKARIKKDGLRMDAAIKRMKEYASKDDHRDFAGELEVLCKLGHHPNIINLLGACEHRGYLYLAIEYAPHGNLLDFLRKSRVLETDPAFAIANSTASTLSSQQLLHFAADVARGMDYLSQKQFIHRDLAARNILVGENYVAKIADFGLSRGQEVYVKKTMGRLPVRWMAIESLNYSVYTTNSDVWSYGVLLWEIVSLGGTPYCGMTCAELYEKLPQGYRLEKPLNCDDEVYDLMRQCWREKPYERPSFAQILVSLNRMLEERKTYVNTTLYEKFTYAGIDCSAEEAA

N#Cc1cc(-c2ncnc(Nc3ccc(N4CCN(C5COC5)CC4)cc3)n2)ccc1OC1CCOCC1 [Compound 1, 5-(4-((4-(4-(oxetan-3-yl)piperazin-1-yl)phenyl)amino)-1,3,5-triazin-2-yl)-2-((tetrahydro-2H-pyran-4-yl)oxy)benzonitrile]
inhibition (off-target kinases [1]; read-out: % Inhibition 1): 3%
inhibition (off-target kinases [1]; read-out: % Inhibition 2): 1%
inhibition (off-target kinases [1]; read-out: % Inhibition Avg): 2%
inhibition (off-target kinases [2]; WNK3, LanthaScreen Binding, read-out: % Inhibition 1): -3%
inhibition (off-target kinases [2]; WNK3, LanthaScreen Binding, read-out: % Inhibition Avg): -2%
inhibition (off-target kinases [2]; read-out: % Inhibition 2): 0%
inhibition (off-target kinases [3]; read-out: % Inhibition 1): 29%
inhibition (off-target kinases [3]; read-out: % Inhibition 2): 32%
inhibition (off-target kinases [3]; read-out: % Inhibition Avg): 30%
inhibition (off-target kinases [4]; read-out: % Inhibition 1): 5%
inhibition (off-target kinases [4]; read-out: % Inhibition 2): 3%
inhibition (off-target kinases [4]; read-out: % Inhibition Avg): 4%
inhibition (off-target kinases [5]; read-out: % Inhibition 1): 11%
inhibition (off-target kinases [5]; read-out: % Inhibition 2): 17%
inhibition (off-target kinases [5]; read-out: % Inhibition Avg): 14%
